In US11179344B2, “Nanoparticle-based liver-targeting therapy” (Midatech Limited, priority 2017, dated 2021):

How the values were obtained:
[1] = test system: subcutaneous Hep3B hepatocellular cancer xenograft; test: Anti-tumour efficacy, subcutaneous HEP3B xenograft model; assay type: in vivo, NOD/SCID mice; conditions: 0.1125 mg/kg i.v. QD×5, day 13
Method: The in vivo anti-tumour efficacy of MTC-100038 in a subcutaneous Hep3B hepatocellular cancer xenograft model in NOD/SCID mice was evaluated. Briefly NOD/SCID mice (18-22 g, n=10 per group) were implanted subcutaneously with HEP 3B hepatocellular cells (3×10^6) in 0.1 mL PBS for tumour development. Group/dosing assignment commenced when tumours reached a pre-determined volume of ˜200 mm^3 subcutaneous tumours (n=10 per group). Tumour size was measured twice weekly, and the volume was expressed in mm^3. The tumour size was then used for calculations of T/C values. The T/C value (in percent) is an indication of anti-tumour effectiveness (optimally, a test article is considered to have anti-tumour activity when T/C is 50% or less); T and C are the mean volumes of the treated and control groups, respectively, on a given day.

[2] = test system: subcutaneous BEL7404 hepatocellular cancer xenograft; test: Anti-tumour efficacy, subcutaneous BEL7404 xenograft model; assay type: in vivo, NOD/SCID mice; conditions: for T/C / Tumour size: day 13; for Tumour size: Mean ± SEM
Method: The in vivo anti-tumour efficacy of MTC-100038 in a subcutaneous BEL7404 hepatocellular cancer xenograft model in NOD/SCID mice was evaluated. Briefly NOD/SCID mice (18-22 g, n=10 per group) were implanted subcutaneously with BEL7404 tumour cells (3×10^6) in 0.1 ml of PBS for tumour development. Group/dosing assignment commenced when tumours reached a pre-determined volume of ˜200 mm^3 subcutaneous tumours.
Tumour size was measured twice weekly, and the volume was expressed in mm^3. The tumour size was then used for calculations of T/C values.

[3] = test system: HCC cell lines HEPG2 and HEP3B; test: Cytotoxicity of gold nanoparticle constructs vs free DM1 (text values); assay type: cell-based, human; conditions: line for the value not stated
Source text: (§1) The cytotoxicity of gold nanoparticle constructs GalC2-PEG8COOH-GNP (parent, non-functionalised gold nanoparticle (MTC-100011)), and MTC-100038 were compared to free DM1 drug in the HCC cell lines HEPG2 and HEP3B.

[4] = test system: orthotopic Hep3B-Luc hepatocellular cancer xenograft; test: Anti-tumour efficacy, orthotopic HEP3B xenograft model (bioluminescence); assay type: in vivo, BALB/c nude mice; conditions: for T/C (%) / Bioluminescence: day 21; for Bioluminescence: Mean
Method: The in vivo anti-tumour efficacy of MTC-100038 in an orthotopic hepatocellular cancer xenograft model in BALB/c nude mice was evaluated. Briefly, female BALB/c nude mice (18-23 g, n=10/group), were implanted with approximately 3×10^6 Hep3B-Luc cells mixed with BD Matrigel in 20 μL (PBS:Matrigel=1:1). Animals were selected and randomized (based on their bioluminescence density) on day 7 after tumour implantation to 6 groups using randomized block design based upon their bioluminescence.
The tumour bioluminescence was used for the calculation of T/C value (in percent), where T and C are the mean bioluminescence of the treated and control groups, respectively, on a given day. Statistical analysis of difference in bioluminescence among the groups and the analysis of drug interaction were conducted on the data obtained at the best therapeutic time point after the final dose (the 21st day after the start of treatment).
A one-way ANOVA was performed to compare bioluminescence among groups, and when a significant F-statistics (a ratio of treatment variance to the error variance) was obtained, comparisons between groups were carried out with Games-Howell test with p<0.05 statistically significant.

[5] = test system: BEL7404; test: In vitro cytotoxicity, BEL7404; assay type: cell-based
[6] = Pharmacokinetics and biodistribution of DM1, subcutaneous Hep3B xenograft model; assay type: in vivo, NOD/SCID mouse; conditions: no further decline at 48 hours, dosed article not stated
Method: DM1 tumour concentration (mean±SEM) is shown for MTC-100038-treated (equivalent DM1 dose 0.06 mg/kg) animals (left-hand bars) and free DM1-treated animals (also 0.06 mg/kg dose) (right-hand bars). Time points are 2 hours (solid fill), 24 hours (horizontal lines) and 48 hours (checked pattern).
The in vivo pharmacokinetics and biodistribution of DM1 was studied in the subcutaneous Hep3B human hepatocellular cancer xenograft model (Table 1). The concentration of gold and DM1 in liver and kidney samples was evaluated 2, 24 and 48 hours after the last drug administration.

[7] = test system: Hep3B cells; test: In vitro cytotoxicity, Hep3B; assay type: cell-based, human
Source text: A lower bar height indicates higher cytotoxic potency.
as §1

[8] = Tolerability (body weight change), mouse model with human HCC xenograft; assay type: in vivo; conditions: I.V., five consecutive days
Method: The animals in this case were a mouse model with a human HCC xenograft. Animals dosed intravenously (I.V.) for five consecutive days (shaded area left of dotted vertical line) at either a low dose of 0.15 mg/kg of DM1 alone (inverted triangles) or high dose of 0.45 mg/kg DM1 alone (diamonds) or MTC-100038 at equivalent DM1 doses low (circles) and high (squares). Percentage body weight change was calculated based on animal weight on the first day of dosing. Data points represent percent group mean change in body weight±SEM. Body weight change is positive in the MTC-100038 nanoparticle-treated animals, but negative (low dose) or fatal (high dose) in the free DM1-treated animals.

[9] = test system: human hepatocellular carcinoma cell line HepG2; test: MTT cell viability assay, Pt / doxorubicin loaded nanoparticles vs free drug; conditions: concentration based on drug amount, FIG. 7: 72 h after treatment
Method: The human hepatocellular carcinoma cell line HepG2 was used in the assay.
HepG2 cells were grown in a T-75 flask. For the transfer of the cell the medium was removed from the flask and the cells were trypsinated for 5 minutes. The cells were collected in a Falcon tube and diluted with complete cell medium. The cell counting was conducted in a Neubauer chamber. A cell solution was prepared to seed 4000 cells per well (200 μL per well). The microtiter plate was incubated for 24 h at 37° C.
For each NP and drug, formulations in cell medium were prepared. The compounds were tested in different concentrations (0.01, 0.05, 0.2, 1, 5, 25 and 125 μM based on drug amount). For the treatment, the cell medium was removed from all wells and exchanged for drug formulations. 200 μl of treatments per triplicate was added to each well. The microtiter plates were incubated for 24 h, 48 h and 72 h at 37° C.
1.5 mL MTT solution (8.0 mg in 1.6 mL DMSO) was diluted with complete cell medium (phenol-red free). The treatment cell medium was removed from the microtiter plate, the wells were washed with 100 μL PBS and 100 μL of the MTT reactive solution was added to each well. After one hour incubation at 37° C. the MTT solution was removed and 100 μL DMSO was added to dissolve the formazan dye. Absorbance was measured at 570 nm.
Data were analysed using OriginPro8. The normalized data were plotted and the curve was fitted using a non-linear regression curve fit (sigmoidal dose-response curve with variable slope). The Absolute IC50 values were obtained by interpolation.

[10] = Tolerability (body weight change), Hep3B orthotopic xenograft model; assay type: in vivo, BALB/c nude mice; conditions: daily oral administration for 21 days
Method: The animals in this case were a mouse HCC model with a Hep3B orthotopic xenograft. MTC-100038, DM1, or vehicle were administered I.V. to BALB/c nude mice in 2×5 day cycles (shaded), whilst Sorafenib was administered by daily oral administration for 21 days (dashed line) at a dose of 60 mg/kg, which was the highest tolerated dose in this model. Percentage body weight change was calculated based on animal weight on the first day of dosing. Data points represent percent group mean change in body weight±SEM. Treatment groups were: Vehicle (black circles), Sorafenib 60 mg/kg (squares), free DM1 0.150 mg/kg (triangles), MTC-100038 0.225 mg/kg (green circles), MTC-100038 0.338 mg/kg (diamonds) and MTC-100038 0.450 mg/kg (inverted triangles).

[11] = test system: HCC cells; test: In vitro targeting of GNPs to HCC cells (counts per field); assay type: cell-based; conditions: relative to base GNP lacking the peptide
Source text: (SEQ ID NO: 1), via its N-terminus (approx. 4 peptide molecules per nanoparticle).
Several base/peptide targeted GNPs were screened in vitro. GNPs having a mixed corona comprising galactose-C2-SH (Gal-C2) ligands and HSPEG8COOH were synthesised according to methodology analogous to that described above in Examples 1 and 2, with however galactose-C2-SH replacing glucose-C2-SH and HSPEG8COOH (also abbreviated SH-EG8-COOH or SH—(OCH2CH2)8—COOH) replacing the amino linker NH2-EG6-SH.
The glypican-3 peptide described in U.S. Pat. No. 8,388,937B2 (the contents of which are expressly incorporated herein by reference)—see SEQ ID NO: 1 thereof, which has the amino acid sequence: […] (SEQ ID NO: 1) was linked to the terminal COOH group of a proportion of the HSPEG8COOH ligands via the N-terminus of said peptide. In a “high loading” GNP construct (see row 1 in the table below), approximately 4 peptides were linked per nanoparticle core. The “high loading” Au@Gal-C2:HSPEG8COOH:HSPEG8CONH[…] The “low loading” Au@Gal-C2:HSPEG8COOH:HSPEG8CONH[…]

[12] = 0.15 mg/kg i.v. QD×5 (D0-4) + QD×5 (D8-12)

COc1cc2cc(c1Cl)N(C)C(=O)C[C@H](OC(=O)[C@H](C)N(C)C(=O)CCS)[C@]1(C)O[C@H]1[C@H](C)[C@@H]1C[C@@](O)(NC(=O)O1)[C@H](OC)/C=C/C=C(\C)C2 [DM1, maytansinoid DM1]
T/C [1]: 78.9%
Tumour size ([1]; Mean ± SEM): 1217 ± 254 mm^3
anti-tumour activity compared to vehicle ([2]; 0.15 mg/kg): no anti-tumour activity
T/C [2, 12]: 113.2%
Tumour size [2, 12]: 2656 ± 180 mm^3
IC50 [3]: 0.00415 µM
anti-tumour activity compared with vehicle group ([4]; 0.15 mg/kg): no anti-tumour activity
T/C (%) [4, 12]: 83.4%
Bioluminescence [4, 12]: 1.21E+10 photons/s
IC50 [5]: 0.009 µM
decline of DM1 concentration in the tumour between 2 and 24 hours [6]: about 40%
IC50 [7]: 0.011 µM
body weight change, low dose ([8]; 0.15 mg/kg DM1 or equivalent DM1 dose): negative
body weight change, high dose ([8]; 0.45 mg/kg DM1 or equivalent DM1 dose): fatal

COc1cccc2c1C(=O)c1c(O)c3c(c(O)c1C2=O)C[C@@](O)(C(=O)CO)C[C@@H]3O[C@H]1C[C@H](N)[C@H](O)[C@H](C)O1 [Doxorubicin, doxorubicin]
IC50 ([9]; Homo sapiens): 0.06 µM

CNC(=O)c1cc(Oc2ccc(NC(=O)Nc3ccc(Cl)c(C(F)(F)F)c3)cc2)ccn1 [Sorafenib]
highest tolerated dose [10]: 60 mg/kg
anti-tumour activity compared to vehicle ([2]; 60 mg/kg over 21 days): significant tumour growth inhibition
T/C ([2]; 60 mg/kg p.o. QD×21): 41.9%
Tumour size ([2]; 60 mg/kg p.o. QD×21): 984 ± 64 mm^3
anti-tumour activity compared with vehicle group ([4]; 60 mg/kg): significant anti-tumour activity
T/C (%) ([4]; 60 mg/kg p.o. QD×21): 22.3%
Bioluminescence ([4]; 60 mg/kg p.o. QD×21): 3.24E+09 photons/s
Bioluminescence ([4]; 60 mg/kg p.o. QD×21, listed as sorafenib): 3.24×10^9 photons/s

GNP-GalC2(50)-AL(50)-(Ac)YFLTTRQ
Fold-targeting (over base particle) [11]: 5.0 fold
Fold-targeting (over base particle) ([11]; listed as Au@GalC2:AL:AL-(Ac)-YFLTTRQ): approximately 5 fold

platinum-(IV)-succinate
IC50 [9]: 38.6 µM
IC50 ([9]; listed as Pt(IV)-succinate): 38.6 µM
